# Data taken from patent US20240158446A1, “CYCLIC COMPOUND HAVING SELECTIVE INHIBITORY ACTION ON KRAS OVER HRAS AND NRAS” (CHUGAI SEIYAKU KABUSHIKI KAISHA, priority 2021, published 2024).
# Assays:
# [1] = target: GDP-bound NRAS wild-type protein (Homo sapiens, UniProt P01111); assay: Binding to NRAS by surface plasmon resonance (SPR), Single Cycle Kinetics; settings: SPR; GDP-bound NRAS wild-type protein vs GDP-bound KRAS wild-type protein; KD ratio class
# [2] = target: GDP-bound HRAS wild-type protein (Homo sapiens, UniProt P01112); assay: Binding to HRAS by surface plasmon resonance (SPR), Single Cycle Kinetics; settings: SPR; GDP-bound HRAS wild-type protein vs GDP-bound KRAS wild-type protein; KD ratio class
# [3] = tested on: human lung cancer strain NCI-H441;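 also: cell proliferation inhibition after four days measured by CellTiter-Glo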
# [4] = target: GDP-bound KRAS wild-type protein (Homo sapiens, UniProt P01116); assay: Binding to KRAS by surface plasmon resonance (SPR), Single Cycle Kinetics; settings: SPR, Single Cycle Kinetics, 1:1 binding model; GDP-bound KRAS wild-type protein; read-out: KRAS KD
# Chain of GDP-bound KRAS wild-type protein (P01116 whole entry): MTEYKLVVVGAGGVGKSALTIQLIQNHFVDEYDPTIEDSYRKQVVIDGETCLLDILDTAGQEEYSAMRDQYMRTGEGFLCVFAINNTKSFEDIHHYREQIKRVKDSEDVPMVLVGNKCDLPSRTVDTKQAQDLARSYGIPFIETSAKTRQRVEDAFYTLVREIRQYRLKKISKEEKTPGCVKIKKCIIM
# Chain of GDP-bound NRAS wild-type protein (P01111 whole entry): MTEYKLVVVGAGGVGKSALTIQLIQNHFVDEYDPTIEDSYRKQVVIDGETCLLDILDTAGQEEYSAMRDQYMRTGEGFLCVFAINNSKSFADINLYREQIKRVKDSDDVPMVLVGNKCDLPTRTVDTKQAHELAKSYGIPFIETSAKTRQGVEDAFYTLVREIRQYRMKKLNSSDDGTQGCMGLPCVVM
# Chain of GDP-bound HRAS wild-type protein (P01112 whole entry): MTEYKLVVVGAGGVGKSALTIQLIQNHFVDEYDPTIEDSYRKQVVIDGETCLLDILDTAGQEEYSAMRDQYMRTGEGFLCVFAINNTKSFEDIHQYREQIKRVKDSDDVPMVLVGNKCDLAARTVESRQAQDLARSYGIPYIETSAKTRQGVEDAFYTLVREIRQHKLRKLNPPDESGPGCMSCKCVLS
Structure (SMILES),NRAS/KRAS (ratio of KD value for NRAS to KD value for KRAS) [1],HRAS/KRAS (ratio of KD value for HRAS to KD value for KRAS) [2],IC50 [3] [nM],Kd [4] [nM]
CCO[C@@H]1C[C@H]2C(=O)NC3(CCC3)C(=O)N(C)[C@@H](C3CCCC3)C(=O)N(C)[C@H](C(=O)N3CCOCC3)CC(=O)N(C)[C@@H](CC)C(=O)N[C@@H]([C@@H](C)CC)C(=O)N3CC[C@H]3C(=O)N(C)[C@H]3CC[C@@H](C)CN(C3=O)[C@@H](Cc3ccc(C(F)(F)F)cc3)C(=O)N(C)CC(=O)N[C@@H](CCc3cc(F)c(C(F)(F)F)c(F)c3)C(=O)N2C1 [PP1369],B (a compound having 3 or more and less than 10 is denoted as B),B (a compound having 3 or more and less than 10 is denoted as B),13.4,0.26
CCO[C@@H]1C[C@H]2C(=O)NC3(CCCC3)C(=O)N(C)[C@@H](C3CCCC3)C(=O)N(C)[C@H](C(=O)N(C)C)CC(=O)N(C)[C@@H](CC)C(=O)N[C@@H]([C@@H](C)CC)C(=O)N(C)CC(=O)N(C)[C@H]3CC[C@@H](C)CN(C3=O)[C@@H](Cc3ccc(C(F)(F)F)cc3)C(=O)N(C)CC(=O)N[C@@H](CCc3cc(F)c(C(F)(F)F)c(F)c3)C(=O)N2C1 [PP1370],C (A compound having a KD ratio of 0.1 or more and less than 3 is denoted as C),C (A compound having a KD ratio of 0.1 or more and less than 3 is denoted as C),2.3,0.057
CCO[C@@H]1C[C@H]2C(=O)NC3(CCCC3)C(=O)N(C)[C@@H](C3CCCC3)C(=O)N(C)[C@H](C(=O)N3CCOCC3)CC(=O)N(C)[C@@H](CC)C(=O)N[C@@H]([C@@H](C)CC)C(=O)N(C)CC(=O)N(C)[C@H]3CC[C@@H](C)CN(C3=O)[C@@H](Cc3ccc(C(F)(F)F)cc3)C(=O)N(C)CC(=O)N[C@@H](CCc3cc(F)c(C(F)(F)F)c(F)c3)C(=O)N2C1 [PP1371],A (a compound having 10 or more and less than 20 is denoted as A),B (a compound having 3 or more and less than 10 is denoted as B),5.1,0.077
CCO[C@@H]1C[C@H]2C(=O)NC3(CCC3)C(=O)N(C)[C@@H](C3CCCC3)C(=O)N(C)[C@H](C(=O)N3CCOCC3)CC(=O)N(C)[C@@H](CC)C(=O)N[C@@H]([C@@H](C)CC)C(=O)N(C)CC(=O)N(C)[C@H]3CC[C@@H](C)CN(C3=O)[C@@H](Cc3ccc(C(F)(F)F)cc3)C(=O)N(C)CC(=O)N[C@@H](CCc3cc(F)c(C(F)(F)F)c(F)c3)C(=O)N2C1 [PP1372],B (a compound having 3 or more and less than 10 is denoted as B),B (a compound having 3 or more and less than 10 is denoted as B),5,0.078
CCO[C@@H]1C[C@H]2C(=O)NC3(CCC3)C(=O)N(C)[C@@H](C3CCCC3)C(=O)N(C)[C@H](C(=O)N3CCOCC3)CC(=O)N(C)[C@@H](CC(C)C)C(=O)N[C@@H]([C@@H](C)CC)C(=O)N3CC[C@H]3C(=O)N(C)[C@H]3CC[C@@H](C)CN(C3=O)[C@@H](Cc3ccc(C(F)(F)F)cc3)C(=O)N(C)CC(=O)N[C@@H](CCc3cc(F)c(C(F)(F)F)c(F)c3)C(=O)N2C1 [PP1373],B (a compound having 3 or more and less than 10 is denoted as B),B (a compound having 3 or more and less than 10 is denoted as B),12.2,0.35
CCO[C@@H]1C[C@H]2C(=O)NC3(CCC3)C(=O)N(C)[C@@H](C3CCCC3)C(=O)N(C)[C@H](C(=O)N3CCOCC3)CC(=O)N(C)[C@@H](CC)C(=O)N[C@@H]([C@@H](C)CC)C(=O)N3CC[C@H]3C(=O)N(C)[C@H]3CC[C@@H](C)CN(C3=O)[C@@H](Cc3ccc(C(F)(F)F)cc3)C(=O)N(C)CC(=O)N[C@@H](CCc3ccc(C(F)(F)F)c(Cl)c3)C(=O)N2C1 [PP1375],B (a compound having 3 or more and less than 10 is denoted as B),B (a compound having 3 or more and less than 10 is denoted as B),11.5,0.23
CCO[C@@H]1C[C@H]2C(=O)NC3(CCCC3)C(=O)N(C)[C@@H](C3CCCC3)C(=O)N(C)[C@H](C(=O)N(C)C)CC(=O)N(C)[C@@H](CC)C(=O)N[C@@H]([C@@H](C)CC)C(=O)N(C)CC(=O)N(C)[C@H]3CC[C@@H](C)CN(C3=O)[C@@H](Cc3ccc(C(F)(F)F)cc3)C(=O)N(C)CC(=O)N[C@@H](CCc3ccc(C(F)(F)F)c(Cl)c3)C(=O)N2C1 [PP1376],B (a compound having 3 or more and less than 10 is denoted as B),B (a compound having 3 or more and less than 10 is denoted as B),3.5,0.037
CCO[C@@H]1C[C@H]2C(=O)NC3(CCCC3)C(=O)N(C)[C@@H](C3CCCC3)C(=O)N(C)[C@H](C(=O)N3CCOCC3)CC(=O)N(C)[C@@H](CC)C(=O)N[C@@H]([C@@H](C)CC)C(=O)N(C)CC(=O)N(C)[C@H]3CC[C@@H](C)CN(C3=O)[C@@H](Cc3ccc(C(F)(F)F)cc3)C(=O)N(C)CC(=O)N[C@@H](CCc3ccc(C(F)(F)F)c(Cl)c3)C(=O)N2C1 [PP1377],B (a compound having 3 or more and less than 10 is denoted as B),B (a compound having 3 or more and less than 10 is denoted as B),5.8,0.087
CCO[C@@H]1C[C@H]2C(=O)NC3(CCC3)C(=O)N(C)[C@@H](C3CCCC3)C(=O)N(C)[C@H](C(=O)N3CCOCC3)CC(=O)N(C)[C@@H](CC)C(=O)N[C@@H]([C@@H](C)CC)C(=O)N(C)CC(=O)N(C)[C@H]3CC[C@@H](C)CN(C3=O)[C@@H](Cc3ccc(C(F)(F)F)cc3)C(=O)N(C)CC(=O)N[C@@H](CCc3ccc(C(F)(F)F)c(Cl)c3)C(=O)N2C1 [PP1378],B (a compound having 3 or more and less than 10 is denoted as B),C (A compound having a KD ratio of 0.1 or more and less than 3 is denoted as C),6.6,0.081
CCO[C@@H]1C[C@H]2C(=O)NC3(CCC3)C(=O)N(C)[C@@H](C3CCCC3)C(=O)N(C)[C@H](C(=O)N3CCOCC3)CC(=O)N(C)[C@@H](CC(C)C)C(=O)N[C@@H]([C@@H](C)CC)C(=O)N3CC[C@H]3C(=O)N(C)[C@H]3CC[C@@H](C)CN(C3=O)[C@@H](Cc3ccc(C(F)(F)F)cc3)C(=O)N(C)CC(=O)N[C@@H](CCc3ccc(C(F)(F)F)c(Cl)c3)C(=O)N2C1 [PP1379],A (a compound having 10 or more and less than 20 is denoted as A),B (a compound having 3 or more and less than 10 is denoted as B),10.3,0.29
CC[C@H](C)[C@@H]1NC(=O)[C@H](CC)N(C)C(=O)C[C@@H](C(=O)N(C)C)N(C)C(=O)[C@H](C2CCCC2)N(C)C(=O)C2(CCCC2)NC(=O)[C@@H]2CCCN2C(=O)[C@H](CCc2cc(F)c(C(F)(F)F)c(F)c2)NC(=O)CN(C)C(=O)[C@H](Cc2ccc(C(F)(F)F)cc2)N2C[C@H](C)CC[C@@H](C2=O)N(C)C(=O)CN(C)C1=O [PP1382],B (a compound having 3 or more and less than 10 is denoted as B),B (a compound having 3 or more and less than 10 is denoted as B),15.8,0.068
CC[C@H](C)[C@@H]1NC(=O)[C@H](CC)N(C)C(=O)C[C@@H](C(=O)N2CCOCC2)N(C)C(=O)[C@H](C2CCCC2)N(C)C(=O)C2(CCCC2)NC(=O)[C@@H]2CCCN2C(=O)[C@H](CCc2cc(F)c(C(F)(F)F)c(F)c2)NC(=O)CN(C)C(=O)[C@H](Cc2ccc(C(F)(F)F)cc2)N2C[C@H](C)CC[C@@H](C2=O)N(C)C(=O)CN(C)C1=O [PP1383],B (a compound having 3 or more and less than 10 is denoted as B),B (a compound having 3 or more and less than 10 is denoted as B),11.2,0.17
CC[C@H](C)[C@@H]1NC(=O)[C@H](CC)N(C)C(=O)C[C@@H](C(=O)N2CCOCC2)N(C)C(=O)[C@H](C2CCCC2)N(C)C(=O)C2(CCC2)NC(=O)[C@@H]2CCCN2C(=O)[C@H](CCc2cc(F)c(C(F)(F)F)c(F)c2)NC(=O)CN(C)C(=O)[C@H](Cc2ccc(C(F)(F)F)cc2)N2C[C@H](C)CC[C@@H](C2=O)N(C)C(=O)CN(C)C1=O [PP1384],A (a compound having 10 or more and less than 20 is denoted as A),B (a compound having 3 or more and less than 10 is denoted as B),13.5,0.11
